# In US11154563B2, “Immunoproteasome inhibitors” (Principia Biopharma Inc., priority 2017, dated 2021):
# Tests used:
# [1] = target: immunoproteasome LMP7/B5i subunit (Homo sapiens, UniProt P20618+P28062); experiment: Caliper-based proteasome enzymatic activity assay, LMP7; assay type: biochemical; settings: human recombinant immunoproteasome 0.3 nM, FAM-peptide substrate 1 μM, 3 h at rt
# Procedure: (§1) A Caliper-based proteasome assay (Caliper Life Sciences, Hopkinton, Mass.) was used to measure inhibition of the immunoproteasome LMP7/B5i subunit, the immunoproteasome LPM2/β1i subunit, and the constitutive proteasome β5c unit for a compound of Formula (I). For LMP7 and β5c, serial dilutions of test compounds were incubated with either human recombinant immunoprotcasome or constitutive proteasome (0.3 nM enzyme) and a carboxyfluorescein (FAM)-labeled peptide substrate FAM-TYETFKSIMKKSPF-NH2 (1 μM) at it for 3 h. The reaction was then terminated with a buffer containing the known proteasome inhibitor carfilzomib at a concentration of 5 uM. For LMP2, serial dilutions of test compounds were incubated with human recombinant immunoproteasome proteasome (0.3 nM enzyme) and a carboxyfluorescein (FAM)-labeled peptide substrate FAM-[…]-NH2 (1 μM) at rt for 2 h. The reaction was then terminated with a buffer containing the known proteasome inhibitor ixazomib at a concentration of 6.7 uM. The reaction buffer was 20 mM Hepes pH 7.4, 0.01% bovine serum albumin, 0.015% SDS, 0.5 mM EDTA, 1%0/DMSO. The peptide cleavage reaction product was quantified on a Caliper LabChip 3000. Percent inhibition was calculated for each compound dilution and the concentration that produced 50% inhibition was calculated. This value is presented as the IC50.
# [2] = target: constitutive proteasome β5c unit (Homo sapiens, UniProt P20618+P28074); experiment: Caliper-based proteasome enzymatic activity assay, β5c; assay type: biochemical; settings: human recombinant constitutive proteasome 0.3 nM, FAM-peptide substrate 1 μM, 3 h at rt; read-out: β5c subunit IC50
# Procedure: as §1
Compound,IC50 [1] [nM],IC50 [2] [nM]
"CC(C)(C=C(C#N)C(=O)N1CCC[C@@H]1COC(=O)N[C@@H](Cc1coc2ccccc12)B(O)O)N1CCC(F)(F)C1 [Example 42, ((R)-2-(benzofuran-3-yl)-1-(((((R)-1-(2-cyano-4-(3,3-difluoropyrrolidin-1-yl)-4-methylpent-2-enoyl)pyrrolidin-2-yl)methoxy)carbonyl)amino)ethyl)boronic acid]",0.5,141
"CC(C)(C)C=C(C#N)C(=O)N1CCOC[C@@H]1COC(=O)N[C@@H](Cc1coc2ccccc12)B(O)O [Example 43, ((R)-2-(benzofuran-3-yl)-1-(((((R)-4-(2-cyano-4,4-dimethylpent-2-enoyl)morpholin-3-yl)methoxy)carbonyl)amino)ethyl)boronic acid]",2,34
"CC(C)(C=C(C#N)C(=O)N1CCC[C@@H]1COC(=O)N[C@@H](Cc1coc2ccccc12)B(O)O)N1CCN(C2COC2)CC1 [Example 44, ((R)-2-(benzofuran-3-yl)-1-(((((R)-1-(2-cyano-4-methyl-4-(4-(oxetan-3-yl)piperazin-1-yl)pent-2-enoyl)pyrrolidin-2-yl)methoxy)carbonyl)amino)ethyl)boronic acid]",2.3,396
"Cc1ccc(C[C@H](NC(=O)OC[C@H]2CCCCN2C(=O)C(C#N)=CC(C)(C)N2CCOCC2)B(O)O)cc1 [Example 45, ((R)-1-(((((R)-1-(2-cyano-4-methyl-4-morpholinopent-2-enoyl)piperidin-2-yl)methoxy)carbonyl)amino)-2-(p-tolyl)ethyl)boronic acid]",4,854
"CC(C)(C=C(C#N)C(=O)N1CCCC[C@@H]1COC(=O)N[C@@H](Cc1coc2ccccc12)B(O)O)N1CCOCC1 [Example 46, ((R)-2-(benzofuran-3-yl)-1-(((((R)-1-(2-cyano-4-methyl-4-morpholinopent-2-enoyl)piperidin-2-yl)methoxy)carbonyl)amino)ethyl)boronic acid]",1,187
CC(C)(C=C(C#N)C(=O)N1CCCC[C@@H]1COC(=O)N[C@@H](Cc1coc2ccccc12)B(O)O)N1CCC(F)(F)C1 [Example 47],1.1,128
"CC(C)(C)C=C(C#N)C(=O)N1C[C@@H]2C[C@@H]2[C@@H]1COC(=O)N[C@@H](Cc1coc2ccccc12)B(O)O [Example 48, ((R)-2-(benzofuran-3-yl)-1-(((((1S,2R,5R)-3-(2-cyano-4,4-dimethylpent-2-enoyl)-3-azabicyclo[3.1.0]hexan-2-yl)methoxy)carbonyl)amino)ethyl)boronic acid]",0.6,115
"CN(C)C/C=C/C(=O)N1CCC[C@@H]1COC(=O)N[C@@H](Cc1coc2ccccc12)B(O)O [Example 49, ((R)-2-(benzofuran-3-yl)-1-(((((R)-1-((E)-4-(dimethylamino)but-2-enoyl)pyrrolidin-2-yl)methoxy)carbonyl)amino)ethyl)boronic acid]",1.3,149
"CC(C)(C)C=C(C#N)C(=O)N1CCCC[C@@H]1COC(=O)N[C@@H](CCc1ccccc1)B(O)O [Example 50, ((R)-1-(((((R)-1-(2-cyano-4,4-dimethylpent-2-enoyl)piperidin-2-yl)methoxy)carbonyl)amino)-3-phenylpropyl)boronic acid]",9.8,> 5000
"CC(C)(C=C(C#N)C(=O)N1C[C@@H]2C[C@@H]2[C@@H]1COC(=O)N[C@@H](Cc1coc2ccccc12)B(O)O)N1CCOCC1 [Example 51, ((R)-2-(benzofuran-3-yl)-1-(((((1S,2R,5R)-3-(2-cyano-4-methyl-4-morpholinopent-2-enoyl)-3-azabicyclo[3.1.0]hexan-2-yl)methoxy)carbonyl)amino)ethyl)boronic acid]",0.5,356
"C=CC(=O)N1C[C@@H]2C[C@@H]2[C@@H]1COC(=O)N[C@@H](Cc1coc2ccccc12)B(O)O [Example 52, ((R)-1-(((((1S,2R,5R)-3-acryloyl-3-azabicyclo[3.1.0]hexan-2-yl)methoxy)carbonyl)amino)-2-(benzofuran-3-yl)ethyl)boronic acid]",1.3,336
